Reference: patent US11286231B2, “Hydrogen-bonding compounds, compositions comprising the same, and methods of preparing and using the same” (Wake Forest University Health Sciences, priority 2016, dated 2022)

Experiments:
Format in all cases: cell-based
[1] = test system: Caco-2; assay: 3D Live/Dead assay with red vs green pixel analysis; conditions: Caco-2, 3D, days 1, 4, 7; 1% w/v compound solution
Protocol: (§1) 3.0×10^6 HepG2 and Caco-2 cells were harvested from the tissue culture dishes, respectively. Following, they were centrifuged into cell pellets and the supernatant was discarded. For each cell line, HepG2 and Caco2, three conditions were prepared, i.e., a positive control (HyStem®) and two experimental conditions (HyStem®+C1.1 and HyStem®+C1.2). To prepare each condition, a 3.0×10^6 cell pellet was suspended in 500 μL 1% w/v Heprasil®, 500 μL 1% w/v Gelatin-S®, 125 μL of 2% w/v Extralink®, and 125 μL of 1% w/v C1.1/C1.2 (experimental conditions) or 125 μL of sterile, deionized water (positive control). The final cell density for each condition was […]. One 50 μL sample of each hydrogel condition at each condition was aliquoted into a 96-well for each time point (1, 4, and 7 days). […] At each time point media was aspirated from the wells and were subsequently incubated for 45-60 min with 200 μL of DPBS containing […] of calcein AM and […] of ethidium homodimer. Live cells fluoresce green due to the uptake and hydrolysis of calcein AM, and the nuclei of dead cells are labelled by the red-fluorescent ethidium homodimer.
(§2) A MATLAB (MathWorks®) script (supplemental information, S.3) was used to quantify red and green fluorescent signals generated by biochemical interactions between the ethidium homodimer and calcein AM, and cells, respectively.
(§3) Quantification of the red (dead) and green (viable) pixels was performed using an image processing script written on MATLAB (S.3). In this case, the live cell staining corresponds with the cytoplasm of the cell while the dead stain only highlights the nuclei of the cell therefore we use the ratio of red to green pixels as a quantification to show the relative cell-viability rather than report individual Live/Dead cell quantification over time.

[2] = test system: HepG2; assay: as above; conditions: HepG2, 3D, days 1, 4, 7; 1% w/v compound solution
Protocol: as §1, §2, §3

[3] = test system: Caco-2; assay: 2D 7-day MTS assay, cell proliferation on hydrogels; conditions: Caco-2, 2D on hydrogel, days 1, 4, 7, 490 nm, FIG. 7
Protocol: (§4) At the proper confluency, the plates were washed with 10 mL of DPBS followed by an addition of 5 mL of trypsin and a 5 min incubation time at 37° C. Upon the conclusion of the incubation time light microscopy was used to determine that the cells had become detached. 5 mL of DMEM-10-1 was added to the plate and the trypsin/DMEM mixture was transferred into a 15 mL conical tube. A 1:4:5 ratio of cell mixture/DMEM-10-1/trypan blue was created in a 2.0 mL cryogenic vial. The mixture contained ˜1.2×10^5 cells-mL-1. The cells were pelleted down by centrifugation at 1500 rpm for 5 minutes and the trypsin/DMEM mixture was aspirated. The cells were resuspended in 10 mL of DMEM-10-1. For the MTS assay, 3.0×10^4 cells per well were seeded (In total 2.43×10^6 cells are needed for 81 wells). In each well (n=3 per time point) of a 96 well plate 16 μL of Heprasil® ([…], 1% w/v), 16 μL of Gelatin-S® (10 mg-mL-1, 1% w/v), 4 μL of Extralink® (5 mg 0.250 μL-1, 2% w/v), and 4 μL of modular catecholamine ([…], 3.6 mM, 1% w/v), C1.1 and C1.2, respectively were mixed by gently pipetting the solution up and down. The wells were then exposed to UV radiation (˜222 nm) for 3 seconds at distance of 1 cm to initiate crosslinking and form the hydrogel matrix. Approximately 30,000 cells were seeded per well; 200 μL of DMEM+10% FBS+1% pen-strep media at a density of 1.2×10^5 cells-mL-1 were aliquoted into each well, Caco-2 and HepG2 cell lines, respectively. A total of 27 wells per time point (3 per condition-positive control, catecholamine (C1.1), and catecholamide (C1.2) for each cell line, Caco-2 and HepG2. For the 3D cell cultural technique and amount of cells used in the live/dead assay refer to the Live/Dead Assay section.
(§5) The MTS assay is widely-used as a nonradioactive quantification of cellular proliferation, viability, and cytotoxicity.28 The MTS assay based on the reduction of MTS tetrazolium compound by viable cells to generate a colored formazan product that is soluble in cell culture media. This conversion is thought to be carried out by NAD(P)H-dependent dehydrogenase enzymes in metabolically active cells. MTS assays were performed using a CellTiter 96® AQueous One Solution Cell Proliferation Assay (G3582, Promega) at days 1, 4, 7. […] At the conclusion of the 45-minute incubation period a Molecular Device SpectraMax M5 plate reader was used to determine the optical density of each well monitored at 490 nm. […] Reported uncertainties were calculated using the standard deviations between the normalized OD values for n=3 runs of each condition.
(§6) In addition to Live/Dead assays, MTS assays were used to quantify the proliferation of cells. In this case, the ability for cells to proliferate in 2D when seeded on the hydrogels was assessed.

[4] = test system: HepG2; assay: as above; conditions: HepG2, 2D on hydrogel, days 1, 4, 7, 490 nm, FIG. 7
Protocol: as §4, §5, §6

C#CCNCc1ccc(O)c(O)c1 [Compound C1.1]
biocompatibility / cell viability in hydrogel (Live/Dead) [1]: only a slightly depressed biocompatibility | biocompatibility / cell viability in hydrogel (Live/Dead) [2]: only a slightly depressed biocompatibility | cell proliferation, normalized optical density (MTS) compared to control [3]: higher | cell proliferation, normalized optical density (MTS) compared to control [4]: higher

C#CCNC(=O)Cc1ccc(O)c(O)c1 [Compound C1.2]
biocompatibility / cell viability in hydrogel (Live/Dead) [1]: only a slightly depressed biocompatibility | biocompatibility / cell viability in hydrogel (Live/Dead) [2]: only a slightly depressed biocompatibility | cell proliferation, normalized optical density (MTS) compared to control [3]: higher | cell proliferation, normalized optical density (MTS) compared to control [4]: higher
